Laboratory results from patent US20030059890A1, “DNA encoding the chimpanzee prostaglandin E2 receptor EP4 subtype” (Pfizer Inc., priority 2001, published 2003).
Like-named read-outs stand apart in the source and are kept apart here.

Columns and labels:
chimpanzee EP4 receptor [1] = target: T1, chimpanzee EP4 receptor (Pan troglodytes, UniProt Q95KZ0); test: Competition binding of 3H-PGE2 on CHO-K1 cells transiently transfected with chimpanzee EP4
Protocol: Competitive binding of various prostanoid ligands for EP1-EP4 with ^3H-PGE2 on CHO cells transiently transfected with chimpanzee EP4. Each indicated concentration of (▪) PGE2, (●) sulprostone, (▴) butaprost, or (♦) EP4SL was incubated with three wells of a 24-well dish of CHO cells transiently transfected with chimpanzee EP4 for 1 hr on ice in the presence of 3 nM 3H-PGE2. Following washing and solubilization of the cells, specific binding was determined by scintillation counting. Error bars represent one standard deviation.
The day prior to transfection, CHO-K1 cells were plated in 100 mm dishes (Corning, Corning, N.Y.) at 6×10^4 cells/cm^2 in DMEM/F12 (Life Technologies) supplemented with 10% fetal calf serum (FCS; Gemini Bio-Products, Calabasas, Calif.). The next day, each plate of cells was transfected with 15 g chimpanzee EP4-pCR3.1-Uni plasmid DNA using Lipofectamine 2000 reagent (Life Technologies) according to the manufacturer's protocol. Briefly, 451 of Lipofectamine 2000 reagent was diluted into 1.5 ml of D-MEM/F12 without serum and incubated at room temperature for 5 minutes. During this time, 15g chimpanzee EP4-pCR3.1-Uni plasmid DNA was diluted into 0.5 ml of D-MEM/F12 without serum. The diluted Lipofectamine 2000 reagent and the DNA were then mixed and incubated an additional 20 minutes at room temperature. 8 ml D-MEM/F12 without serum was then added to each reaction and carefully added to a plate of CHO cell previously rinsed with serum free D-M EM/F12. These cells were then incubated at 37° C. with 5% CO2 for 6 hr at which time 1 ml FCS was added per plate and the incubation continued at 37° C. with 5% CO2 overnight. The following day, the cells were split to either 24-well or 96-well dishes for use in ligand binding and/or secondary signaling analyses.
Whole cell binding reactions (0.2 ml per well) containing 3 nM ^3H-PGE2 plus unlabeled competitor (10^−5 to 10^−10 M) were performed on ice for 1 hr. Unbound radioligand was removed by extensive washing, the cells were solubilized with 1% SDS, and the bound ^3H-PGE2 quantitated by scintillation counting.

parental CHO-K1 cells = test: cAMP levels in parental (untransfected) CHO-K1 cells; format: cell-based, Chinese hamster; details: parental CHO-K1 cells (not transfected)
Protocol: The protein-coding region of chimpanzee EP4 was contained in open reading frame of 1470 bp and encodes a protein of 490 amino acids with a predicted molecular weight of 53.4 kD.
(§1) Cells were then rinsed once with PBS and the appropriate concentrations of test compounds (diluted in assay buffer: 5 mM MgCl2; 30 mM Hepes pH 7.4; 0.3 mM 3-isobutyl-1-methylxanthine, (IBMX; Calbiochem, La Jolla, Calif.); 1 mg/ml dextrose) were added. The plate was incubated at 37° C. for 12 minutes, after which 10 μl lysis buffer was added to each well to terminate the reaction. SPA reagent (RPA559, Amersham, Piscataway, N.J.) was prepared according to the manufacturer's protocol and 120 μl was added to each well. Assay plates were then counted in a Wallac Trilux counter (Perkin Elmer, Boston, Mass.).

chimpanzee EP4 receptor [2] = target: T1, chimpanzee EP4 receptor; test: cAMP accumulation (SPA) in CHO cells transiently transfected with chimpanzee EP4; format: cell-based; details: 12 minutes treatment, IBMX present, SPA kit
Protocol: Error bars represent one standard deviation.
Secondary signaling in CHO cells expressing chimpanzee EP4 was measured by cAMP accumulation. CHO cells transiently transfected with chimpanzee EP4 were treated for 12 minutes with various concentrations of PGE2 in the presence of 2 mM IBMX. Accumulation of intracellular cAMP was measured at the end of the treatment period by use of a commercially available scintillation proximity assay (SPA) kit (Amersham, Arlington Heights, Ill.).
as §1

T1 sequence (Q95KZ0 whole entry): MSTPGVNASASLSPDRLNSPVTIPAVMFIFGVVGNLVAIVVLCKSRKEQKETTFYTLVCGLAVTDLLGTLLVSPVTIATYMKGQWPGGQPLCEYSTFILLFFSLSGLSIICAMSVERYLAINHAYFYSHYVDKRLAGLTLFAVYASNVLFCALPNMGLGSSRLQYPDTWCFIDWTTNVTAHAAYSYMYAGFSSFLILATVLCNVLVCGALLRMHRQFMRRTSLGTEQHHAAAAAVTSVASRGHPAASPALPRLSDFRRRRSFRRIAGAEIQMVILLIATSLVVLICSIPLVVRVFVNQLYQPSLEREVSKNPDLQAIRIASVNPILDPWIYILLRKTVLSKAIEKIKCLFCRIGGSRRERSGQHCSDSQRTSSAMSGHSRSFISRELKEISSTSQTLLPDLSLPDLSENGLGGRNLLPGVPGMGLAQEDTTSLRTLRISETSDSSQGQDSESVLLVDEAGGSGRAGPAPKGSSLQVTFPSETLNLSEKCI

Compound | binding to the chimpanzee EP4 receptor (competition with 3H-PGE2) (chimpanzee EP4 receptor [1]; CHO-K1 cells transiently transfected with chimpanzee EP4, competitor 10^-5 to 10^-10 M) | increased levels of cAMP (parental CHO-K1 cells) | IC50 (chimpanzee EP4 receptor [1]; read-out: IC50 for displacement of 3H-PGE2 binding, whole CHO-K1 cells transiently transfected with chimpanzee EP4, 3 nM 3H-PGE2, 1 hr on ice) [nM] | EC50 (chimpanzee EP4 receptor [2]) [nM] | IC50 (chimpanzee EP4 receptor [1]) [nM]
CCCC1([C@H](O)C/C=C/[C@H]2[C@H](O)CC(=O)[C@@H]2CCCCCCC(=O)OC)CCC1 [butaprost] | did not bind |  |  |  | 
CCCCC[C@H](O)/C=C/[C@H]1[C@H](O)CC(=O)[C@@H]1C/C=C\CCCC(=O)O [PGE2, Prostaglandin E2] |  | not in parental CHO-K1 cells | 2.5 | 8.9 | 
O=C(O)CCCCCCN1C(=O)CCC1CCC(O)Cc1ccccc1 (stereo not shown) [EP4SL, 7-[2-(3-hydroxy-4-phenyl-butyl)-5-oxo-pyrrolidin-1-yl]-heptanoic acid] |  | not in parental CHO-K1 cells |  | 560 | 300
